In ChEMBL document CHEMBL4808219, “Exploration of Benzo[b]carbazole-6,11-diones as anticancer agents: Synthesis and studies of hTopoIIα inhibition and apoptotic effects” (Bioorg Med Chem Lett, 2021):
Calls of active or inactive are those of the source. The rule behind the calls is not given here.

How the values were obtained:
[1] = tested on: MDA-MB-231; assay: Genotoxicity in human MDA-MB-231 cells assessed as induction of DNA damage at 3 uM incubated for 24 hrs by comet assay; type: functional, cell-based
[2] = tested on: MDA-MB-231; assay: Induction of apoptosis in human MDA-MB-231cells as increase in cleaved PARP1 level by measuring fold change in cleaved PARP1 expression by Western blot analysis relative to control; type: functional
[3] = tested on: MDA-MB-231; assay: Cytotoxicity against human MDA-MB-231 cells assessed as normal nuclei at 5 uM by DAPI staining based fluorescence microscopic analysis (reference value: 93.33 to 95.83%); type: functional
[4] = Cytotoxicity against human H357 cells assessed as reduction in cell viability incubated for 48 hrs by MTT assay; type: functional, cell-based; settings: Homo sapiens, H357, 48 h; read-out: IC50
[5] = tested on: MDA-MB-231; assay: Cytotoxicity against human MDA-MB-231 cells assessed as normal nuclei at 2 uM by DAPI staining based fluorescence microscopic analysis (reference value: 85.71 to 95.83%); type: functional
[6] = tested on: MDA-MB-231; assay: Cytotoxicity against human MDA-MB-231 cells assessed as apoptotic nuclei at 1 uM by DAPI staining based fluorescence microscopic analysis (reference value: 4.17 to 14.29%); type: functional
[7] = tested on: MDA-MB-231; assay: Induction of apoptosis in human MDA-MB-231cells assessed as downregulation of Bcl-xl level by measuring fold change in Bcl-xl expression by Western blot analysis relative to control; type: functional
[8] = tested on: MCF-10A; assay: Cytotoxicity against human MCF-10A cells; type: cell-based
[9] = tested on: MDA-MB-231; assay: Cytotoxicity against human MDA-MB-231 cells assessed as apoptotic nuclei at 3 uM by DAPI staining based fluorescence microscopic analysis (reference value: 4.17 to 6.67%); type: functional
[10] = tested on: MDA-MB-231; assay: Cytotoxicity against human MDA-MB-231 cells assessed as increase in deformation and shrinkage of nuclei by DAPI staining-based fluorescence microscopic analysis; type: functional, cell-based; settings: dose 0.5-2.5 µM
[11] = tested on: MDA-MB-231; assay: Induction of apoptosis in human MDA-MB-231 cells assessed as upregulation of Bax level by measuring fold change in Bax expression by Western blot analysis relative to control; type: functional
[12] = tested on: MDA-MB-231; assay: Cytotoxicity against human MDA-MB-231 cells assessed as normal nuclei at 3 uM by DAPI staining based fluorescence microscopic analysis (reference value: 93.33 to 95.83%); type: functional
[13] = tested on: MDA-MB-231; assay: Cytotoxicity against human MDA-MB-231 cells assessed as reduction in cell survival by clonogenic assay; type: functional, cell-based
[14] = tested on: MDA-MB-231; assay: Cytotoxicity against human MDA-MB-231 cells assessed as apoptotic nuclei at 5 uM by DAPI staining based fluorescence microscopic analysis (reference value: 4.17 to 6.67%); type: functional
[15] = tested on: MDA-MB-231; assay: Cytotoxicity against human MDA-MB-231 cells assessed as reduction in cell viability incubated for 48 hrs by MTT assay; type: functional, cell-based; settings: Homo sapiens, MDA-MB-231, 48 h; read-out: IC50
[16] = tested on: MDA-MB-231; assay: Cytotoxicity against human MDA-MB-231 cells assessed as apoptotic nuclei at 2 uM by DAPI staining based fluorescence microscopic analysis (reference value: 4.17 to 14.29%); type: functional
[17] = tested on: MDA-MB-231; assay: Cytotoxicity against human MDA-MB-231 cells assessed as normal nuclei at 4 uM by DAPI staining based fluorescence microscopic analysis (reference value: 93.33 to 95.83%); type: functional
[18] = tested on: MDA-MB-231; assay: Cytotoxicity against human MDA-MB-231 cells assessed as normal nuclei at 1 uM by DAPI staining based fluorescence microscopic analysis (reference value: 85.71 to 95.83%); type: functional
[19] = tested on: HEK-293T; assay: Cytotoxicity against human HEK293T cells assessed as reduction in cell viability incubated for 48 hrs by MTT assay; type: cell-based
[20] = tested on: MCF7; assay: Cytotoxicity against human MCF7 cells assessed as reduction in cell viability incubated for 48 hrs by MTT assay; type: functional, cell-based; settings: Homo sapiens, MCF7, 48 h; read-out: IC50
[21] = tested on: MDA-MB-231; assay: Cytotoxicity against human MDA-MB-231 cells assessed as apoptotic nuclei at 4 uM by DAPI staining based fluorescence microscopic analysis (reference value: 4.17 to 6.67%); type: functional
[22] = Downregulation of cyclinB1 protein expression in human MDA-MB-231cells assessed as fold change in cyclin B1 expression at IC50 after 48 hrs by Western blot analysis relative to control; type: functional
[23] = Upregulation of p21 protein expression in human MDA-MB-231cells assessed as fold change in p21 expression at IC50 after 48 hrs by Western blot analysis relative to control; type: functional
[24] = tested on: MDA-MB-231; assay: Cytotoxicity against human MDA-MB-231 cells assessed as normal nuclei at 0.5 uM by DAPI staining based fluorescence microscopic analysis (reference value: 85.71 to 88.89%); type: functional
[25] = Downregulation of NFkappaB protein expression in human MDA-MB-231cells assessed as fold change in NF-kB expression at IC50 after 48 hrs by Western blot analysis relative to control; type: functional
[26] = Upregulation of cyclinD1 protein expression in human MDA-MB-231cells assessed as fold change in cyclin D1 expression at IC50 after 48 hrs by Western blot analysis relative to control; type: functional
[27] = tested on: MDA-MB-231; assay: Induction of apoptosis in human MDA-MB-231 cells assessed as late apoptotic cells at IC50 by Annexin V/FITC-propidium iodide staining-based flow cytometric method (reference value: 1.2 +/- 0.3 %); type: functional
[28] = tested on: MDA-MB-231; assay: Cytotoxicity against human MDA-MB-231 cells assessed as normal nuclei at 1.5 uM by DAPI staining based fluorescence microscopic analysis (reference value: 85.71 to 88.89%); type: functional
[29] = tested on: MDA-MB-231; assay: Induction of apoptosis in human MDA-MB-231 cells assessed as viable cells at IC50 by Annexin V/FITC-propidium iodide staining-based flow cytometric method (reference value: 87.2 +/- 0.7 %); type: functional
[30] = tested on: MDA-MB-231; assay: Induction of apoptosis in human MDA-MB-231 cells assessed as early apoptotic cells at IC50 by Annexin V/FITC-propidium iodide staining-based flow cytometric method (reference value: 7.1 +/- 0.4 %); type: functional
[31] = tested on: MDA-MB-231; assay: Induction of apoptosis in human MDA-MB-231 cells assessed as necrotic cells at IC50 by Annexin V/FITC-propidium iodide staining-based flow cytometric method (reference value: 4.5 +/- 0.5 %); type: functional
[32] = tested on: MDA-MB-231; assay: Cytotoxicity against human MDA-MB-231 cells assessed as apoptotic nuclei at 1.5 uM by DAPI staining based fluorescence microscopic analysis (reference value: 11.11 to 14.29%); type: functional
[33] = Downregulation of CDC6 protein expression in human MDA-MB-231cells assessed as fold change in CDC6 expression at IC50 after 48 hrs by Western blot analysis relative to control; type: functional
[34] = tested on: MDA-MB-231; assay: Genotoxicity in human MDA-MB-231 cells assessed as induction of DNA damage at 2 uM incubated for 24 hrs by comet assay; type: functional, cell-based
[35] = tested on: MDA-MB-231; assay: Cell cycle arrest in human MDA-MB-231 cells assessed as accumulation at S phase at IC50 measured after 48 hrs by propidium iodide staining based FACS analysis (reference value: 9.2+/-0.3 %); type: functional
[36] = tested on: MDA-MB-231; assay: Cytotoxicity against human MDA-MB-231 cells assessed as apoptotic nuclei at 2.5 uM by DAPI staining based fluorescence microscopic analysis (reference value: 11.11 to 14.29%); type: functional
[37] = Downregulation of Cdc25A protein expression in human MDA-MB-231cells assessed as fold change in Cdc25A expression at IC50 after 48 hrs by Western blot analysis relative to control; type: functional
[38] = tested on: MDA-MB-231; assay: Cytotoxicity against human MDA-MB-231 cells assessed as normal nuclei at 2.5 uM by DAPI staining based fluorescence microscopic analysis (reference value: 85.71 to 88.89%); type: functional
[39] = Upregulation of p53 protein expression in human MDA-MB-231cells assessed as fold change in p53 expression at IC50 after 48 hrs by Western blot analysis relative to control; type: functional
[40] = tested on: MDA-MB-231; assay: Cell cycle arrest in human MDA-MB-231 cells assessed as accumulation at G2/M phase at IC50 measured after 48 hrs by propidium iodide staining based FACS analysis (reference value: 30.8+/-1.6 %); type: functional
[41] = tested on: MDA-MB-231; assay: Cytotoxicity against human MDA-MB-231 cells assessed as apoptotic nuclei at 0.5 uM by DAPI staining based fluorescence microscopic analysis (reference value: 11.11 to 14.29%); type: functional
[42] = tested on: MDA-MB-231; assay: Cell cycle arrest in human MDA-MB-231 cells assessed as accumulation at G1 phase at IC50 measured after 48 hrs by propidium iodide staining based FACS analysis (reference value: 59.3+/-2.9 %); type: functional
[43] = tested on: MDA-MB-231; assay: Cell cycle arrest in human MDA-MB-231 cells assessed as accumulation at sub G1 phase at IC50 measured after 48 hrs by propidium iodide staining based FACS analysis (reference value: 0.7+/-0.2 %); type: functional

For `O=C1c2cccc(O)c2C(=O)c2c1[nH]c1ccccc21`, the Activity [1] was “Active”, the “fold change (FC)” value [2] was 1 and the Activity [3] was 26.67%. It also gave an IC50 [4] of 3.6 µM, an Activity [5] of 63.64% and an Activity [6] of 25.93%. The “fold change (FC)” value [7] was 0.2, the IC50 [8] was 105 µM and the Activity [9] was 48.48%. The Activity [10] was “Dose-Dependent Effect”, the “fold change (FC)” value [11] was 2.2 and the Activity [12] was 51.52%. The IC50 [13] was 2.7 µM, the Activity [14] was 73.33% and the IC50 [15] was 3.2 µM. For the same compound, the Activity [16] was 36.36%, the Activity [17] was 44.44% and the Activity [18] was 74.07%. It also gave an IC50 [19] of 4 µM, an IC50 [20] of 3 µM and an Activity [21] of 55.56%.
With `CN(C1=CC(=O)c2ccccc2C1=O)c1ccccc1` the “fold change (FC)” value [22] was 0.4, the “fold change (FC)” value [23] was 2.3 and the “fold change (FC)” value [2] was 0.9. For the same compound, the Activity [24] was 83.33%, the “fold change (FC)” value [25] was 0.7 and the “fold change (FC)” value [26] was 1.5. The Activity [27] was 4.8%, the IC50 [4] was 2 µM and the Activity [28] was 69.23%. For the same compound, the Activity [29] was 52.2%, the Activity [5] was 43.59% and the Activity [30] was 22.3%. For the same compound, the Activity [6] was 27.78%, the Activity [31] was 20.7% and the “fold change (FC)” value [7] was 0.8. The Activity [32] was 30.77%, the “fold change (FC)” value [33] was 0.5 and the Activity [34] was “Active”. It also gave an IC50 [8] of 86 µM, an Activity [35] of 27.1% and an Activity [36] of 78.57%. For the same compound, the “fold change (FC)” value [37] was 0.3, the Activity [10] was “Dose-Dependent Effect” and the “fold change (FC)” value [11] was 2.5. The Activity [38] was 21.43%, the IC50 [13] was 1.2 µM and the IC50 [15] was 2 µM. The Activity [16] was 56.41%, the “fold change (FC)” value [39] was 2.5 and the Activity [40] was 24.6%. It also gave an Activity [41] of 16.67%, an Activity [18] of 72.22% and an Activity [42] of 40.4%. For the same compound, the IC50 [19] was 3.5 µM, the IC50 [20] was 1.5 µM and the Activity [43] was 7.9%.
